Experimental data taken from patent US20210024520A1, “THERAPEUTIC AGENT FOR LCAT DEFICIENCY” (DAIICHI SANKYO COMPANY, LIMITED, priority 2018, published 2021).
Substitutions are numbered along the chain they refer to.

Tests used:
Assay type in all cases: biochemical
[1] = molecular target: T1, mutant LCAT protein N228K (Homo sapiens, UniProt P04180, N252K); assay: Measurement of LCAT activity using LCAT mutant protein N228K (FLD), reconstituted HDL with [14C]-cholesterol; conditions: for Measured value of LCAT activity Mean ± standard error (n = 6): 37° C. 1 hour, radioactivity of cholesterol ester
T1 construct: made in house; host or cells: HEK293 cells (culture supernatant)
T1 sequence (P04180 25-440 N252K): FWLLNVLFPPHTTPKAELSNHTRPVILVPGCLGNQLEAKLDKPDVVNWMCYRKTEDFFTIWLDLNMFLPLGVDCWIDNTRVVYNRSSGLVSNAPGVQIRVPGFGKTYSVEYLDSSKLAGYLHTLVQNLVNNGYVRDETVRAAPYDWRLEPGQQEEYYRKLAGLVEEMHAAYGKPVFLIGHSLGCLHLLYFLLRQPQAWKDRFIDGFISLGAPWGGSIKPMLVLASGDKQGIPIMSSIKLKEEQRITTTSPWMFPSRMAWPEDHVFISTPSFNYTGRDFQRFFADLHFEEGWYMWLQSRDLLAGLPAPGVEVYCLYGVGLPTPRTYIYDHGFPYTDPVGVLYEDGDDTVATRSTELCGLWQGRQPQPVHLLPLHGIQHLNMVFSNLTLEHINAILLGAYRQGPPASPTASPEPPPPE
Protocol: (§1) Mutant LCAT proteins, reported on gene mutations among patients with familial LCAT deficiency (FLD) and patients with fish eye disease (FED), were expressed in HEK293 cells, and the mutant LCAT proteins were purified from the culture supernatant and used as enzyme sources. HDL was reconstituted with phosphatidylcholine, [14C]-labelled cholesterol, and apolipoprotein A-I and used as a reactive substrate. The test compound was prepared by being dissolved in dimethyl sulfoxide. To a mixture of 7 μL of the mutant LCAT protein solution (concentration 0.034 μg/μL), 1 μL each of PBS containing 10% bovine serum albumin or mercaptoethanol, and 40 μL of the above-mentioned reconstituted HDL was further added 1 μL of the test compound (final concentration 1 or 10 μM) to prepare 50 μL of a mixture in total. The mixture was incubated at 37° C. for 1 hour and subsequently a mixed solution of hexane and isopropanol (mixing ratio=3:2) was added to stop the reaction. Water was added and stirred, and subsequently the hexane layer was collected and concentrated to dryness. A chloroform solution (concentration 10 mg/mL) was added thereto, spotted on a silica gel thin-layer plate and developed with a mixed solution of hexane, diethyl ether and ethyl acetate (mixing ratio=85:15:2). Radioactivity of a portion corresponding to the cholesterol ester separated on each lane by the development on the silica gel thin-layer plate was measured using an imaging analyzer BAS-2500 (manufactured by FUJIFILM Corporation). Radioactivities with and without the test compound were compared to calculate the ratio of LCAT activity with the addition of the test compound to that without the addition of the test compound for each of the mutant proteins. Additionally, the presence and absence of significant differences in both cases were statistically evaluated using t-test or Dunnett multiple comparison test.

[2] = molecular target: T2, mutant LCAT protein T1231 (Homo sapiens, UniProt P04180, T147I); assay: Measurement of LCAT activity using LCAT mutant protein T1231 (FED), reconstituted HDL with [14C]-cholesterol; conditions: compound concentration 1 μM
T2 construct: made in house; host or cells: HEK293 cells (culture supernatant)
T2 sequence (P04180 25-440 T147I): T1 sequence (P04180 25-440 N252K) with T123I, K228N
Protocol: as §1, with “Water was added and stirred, and subsequently the hexane layer was collected and concentrated to dryness. A chloroform solution (concentration 10 mg/mL) was added thereto, spotted on a silica gel thin-layer plate and developed with a mixed solution of hexane, diethyl ether and ethyl acetate (mixing ratio=85:15:2).” left out, “Radioactivities with and without the test compound were compared to calculate the ratio of LCAT activity with the addition of the test compound to that without the addition of the test compound for each of the mutant proteins.” left out

[3] = molecular target: T3, mutant LCAT protein Y156N (Homo sapiens, UniProt P04180, Y180N); assay: Measurement of LCAT activity using LCAT mutant protein Y156N (FLD), reconstituted HDL with [14C]-cholesterol; conditions: for Measured value of LCAT activity Mean ± standard error (n = 6): 37° C. 1 hour, radioactivity of cholesterol ester
T3 construct: made in house; host or cells: HEK293 cells (culture supernatant)
T3 sequence (P04180 25-440 Y180N): T1 sequence (P04180 25-440 N252K) with Y156N, K228N
Protocol: as §1

[4] = molecular target: T4, mutant LCAT protein N131D (Homo sapiens, UniProt P04180, N155D); assay: Measurement of LCAT activity using LCAT mutant protein N131D (FED), reconstituted HDL with [14C]-cholesterol; conditions: compound concentration 1 μM
T4 construct: made in house; host or cells: HEK293 cells (culture supernatant)
T4 sequence (P04180 25-440 N155D): T1 sequence (P04180 25-440 N252K) with N131D, K228N
Protocol: as §1, with “Water was added and stirred, and subsequently the hexane layer was collected and concentrated to dryness. A chloroform solution (concentration 10 mg/mL) was added thereto, spotted on a silica gel thin-layer plate and developed with a mixed solution of hexane, diethyl ether and ethyl acetate (mixing ratio=85:15:2).” left out, “Radioactivities with and without the test compound were compared to calculate the ratio of LCAT activity with the addition of the test compound to that without the addition of the test compound for each of the mutant proteins.” left out

mutant LCAT protein P10Q = molecular target: T5, mutant LCAT protein P10Q (Homo sapiens, UniProt P04180, P34Q); assay: Measurement of LCAT activity using LCAT mutant protein P10Q (FED), reconstituted HDL with [14C]-cholesterol; conditions: compound concentration 1 μM
T5 construct: made in house; host or cells: HEK293 cells (culture supernatant)
T5 sequence (P04180 25-440 P34Q): T1 sequence (P04180 25-440 N252K) with P10Q, K228N
Protocol: as §1, with “Water was added and stirred, and subsequently the hexane layer was collected and concentrated to dryness. A chloroform solution (concentration 10 mg/mL) was added thereto, spotted on a silica gel thin-layer plate and developed with a mixed solution of hexane, diethyl ether and ethyl acetate (mixing ratio=85:15:2).” left out, “Radioactivities with and without the test compound were compared to calculate the ratio of LCAT activity with the addition of the test compound to that without the addition of the test compound for each of the mutant proteins.” left out

[5] = 37° C. 1 hour, radioactivity of cholesterol ester

For `O=C1Nc2[nH]nc(C3CCN(c4cnc(C(F)(F)F)nc4)CC3)c2[C@@H](C(F)(F)F)[C@H]1O` [test compound, (+)-Cis-5-hydroxy-4-(trifluoromethyl)-3-{1-[2-(trifluoromethyl)pyrimidin-5-yl]piperidin-4-yl}-1,4,5,7-tetrahydro-6H-pyrazolo[3,4-b]pyridin-6-one], the “LCAT activity ratio of case of compound addition to no-addition control” value (“LCAT activity ratio … to no-addition control” below) ([1]; compound concentration 1 μM) was 2.80, the “Measured value of LCAT activity Mean ± standard error (n = 6)” value ([1]; compound concentration 1 μM) was 634.17 ± 66.62 and the “LCAT activity ratio … to no-addition control” value ([1]; compound concentration 10 μM) was 2.76. The “Measured value of LCAT activity Mean ± standard error (n = 6)” value ([1]; compound concentration 10 μM) was 625.22 ± 41.03, the “LCAT activity ratio … to no-addition control” value [2] was 3.75 and the “Measured value of LCAT activity Mean ± standard error (n = 6)” value [2, 5] was 3263.11 ± 521.27. For the same molecule, the “LCAT activity ratio … to no-addition control” value ([3]; compound concentration 1 μM) was 1.83, the “Measured value of LCAT activity Mean ± standard error (n = 6)” value ([3]; compound concentration 1 μM) was 447.36 ± 47.06 and the “LCAT activity ratio … to no-addition control” value ([3]; compound concentration 10 μM) was 1.82. The “Measured value of LCAT activity Mean ± standard error (n = 6)” value ([3]; compound concentration 10 μM) was 443.20 ± 36.83, the “LCAT activity ratio … to no-addition control” value [4] was 3.19 and the “Measured value of LCAT activity Mean ± standard error (n = 6)” value [4, 5] was 1308.38 ± 259.22. The “LCAT activity ratio … to no-addition control” value (mutant LCAT protein P10Q) was 3.83 and the “Measured value of LCAT activity Mean ± standard error (n = 6)” value (mutant LCAT protein P10Q; [5]) was 2908.25 ± 429.42.
